Data from patent publication US20250290928A1, “METHOD, KIT AND DEVICE FOR DETECTING EXTRACELLULAR VESICLES” (priority 2022, published 2025).
Where “and” joins values, the source holds several entries; their conditions need not be identical. Equal entries are not always repeated. *: point of attachment. 5FAM = O=C1OC2(c3ccc(O)cc3Oc3cc(O)ccc32)c2ccc(C(=O)*)cc21; TQ2 = quencher

Assays:
[1] = test system: MMP14 in the HT1080 culture supernatants and the culture medium samples; experiment: Digital detection of MMP14 active component in HT1080 culture supernatants, culture media and recovered liquids in wells; type: biochemical, Human; conditions: for original concentration in the culture supernatant / amount of the extracellular vesicles in the fraction (0.7 mL): Example 59, qEV; for original concentration in the culture supernatant: recovered from 3 mL of the culture supernatant; for amount of the extracellular vesicles in the fraction (0.7 mL): 4 h
Protocol: (§1) In addition, for detection of MMP14 activity, 1 mM Custom #1 was diluted with the buffer (4) to prepare a MMP14 detection solution containing 5 μM Custom #1 and 2 μM Alexa Fluor 647.

[2] = molecular target: T1, MMP14 in the HT1080 culture supernatants and the culture medium samples (Homo sapiens, UniProt P50281); experiment: as above; type: biochemical; conditions: for MMP14 active component concentration: HT1080 culture Present
T1 construct: host or cells: HT1080 culture supernatant
Protocol: as §1

[3] = Experiment condition (I): FBS, HT1080 culture Present, only centrifugation, Reaction 4 hr
[4] = Experiment condition (I): FBS, HT1080 culture Present, only centrifugation, Reaction 24 hr
[5] = Experiment condition (II): FBS, HT1080 culture Present, centrifugation + filtration, Reaction 4 hr
[6] = Experiment condition (II): FBS, HT1080 culture Present, centrifugation + filtration, Reaction 24 hr
[7] = Experiment condition (III): FBS culture medium, HT1080 culture Absent, Reaction 4 hr
[8] = Experiment condition (III): FBS culture medium, HT1080 culture Absent, Reaction 24 hr
[9] = Experiment condition (IV): Exo-FBS, HT1080 culture Present, only centrifugation, Reaction 4 hr
[10] = Experiment condition (IV): Exo-FBS, HT1080 culture Present, only centrifugation, Reaction 24 hr
[11] = Experiment condition (IX): MEM culture medium, HT1080 culture Absent, Reaction 4 hr
[12] = Experiment condition (IX): MEM culture medium, HT1080 culture Absent, Reaction 24 hr
[13] = Experiment condition (V): Exo-FBS, HT1080 culture Present, centrifugation + filtration, Reaction 4 hr
[14] = Experiment condition (V): Exo-FBS, HT1080 culture Present, centrifugation + filtration, Reaction 24 hr
[15] = Experiment condition (VI): Exo-FBS culture medium, HT1080 culture Absent, Reaction 4 hr
[16] = Experiment condition (VI): Exo-FBS culture medium, HT1080 culture Absent, Reaction 24 hr
[17] = Experiment condition (VII): MEM, HT1080 culture Present, only centrifugation, Reaction 4 hr
[18] = Experiment condition (VII): MEM, HT1080 culture Present, only centrifugation, Reaction 24 hr
[19] = Experiment condition (VIII): MEM, HT1080 culture Present, centrifugation + filtration, Reaction 4 hr
[20] = Experiment condition (VIII): MEM, HT1080 culture Present, centrifugation + filtration, Reaction 24 hr
[21] = HT1080 culture supernatant recovered with exoEasy, Exo-FBS, Reaction 4 hr
[22] = HT1080 culture supernatant recovered with exoEasy, Exo-FBS, Reaction 24 hr
[23] = HT1080 culture supernatant recovered with exoEasy, MEM, Reaction 4 hr
[24] = HT1080 culture supernatant recovered with exoEasy, MEM, Reaction 24 hr
[25] = qEV recovered liquid, Exo-FBS, Fraction # 8, 4 hours of reaction
[26] = qEV recovered liquid, Exo-FBS, Fraction # 9, 4 hours of reaction
[27] = qEV recovered liquid, Exo-FBS, Fraction # 10, 4 hours of reaction
[28] = qEV recovered liquid, Exo-FBS, Fraction # 11, 4 hours of reaction
[29] = qEV recovered liquid, Exo-FBS, Fraction # 12, 4 hours of reaction
[30] = qEV recovered liquid, Exo-FBS, Fraction # 13, 4 hours of reaction
[31] = qEV recovered liquid, Exo-FBS, Fraction # 14, 4 hours of reaction
[32] = qEV recovered liquid, Exo-FBS, Fraction # 15, 4 hours of reaction
[33] = qEV recovered liquid, MEM, Fraction # 7, 4 hours of reaction
[34] = qEV recovered liquid, MEM, Fraction # 8, 4 hours of reaction
[35] = qEV recovered liquid, MEM, Fraction # 9, 4 hours of reaction
[36] = qEV recovered liquid, MEM, Fraction # 10, 4 hours of reaction
[37] = qEV recovered liquid, MEM, Fraction # 11, 4 hours of reaction
[38] = qEV recovered liquid, MEM, Fraction # 12, 4 hours of reaction
[39] = qEV recovered liquid, MEM, Fraction # 13, 4 hours of reaction
[40] = qEV recovered liquid, MEM, Fraction # 14, 4 hours of reaction

[5-FAM]GRIGFLRTAK(TQ2)[OH] (5FAM-GRIGFLRTAK(TQ2)-OH) [Custom #1]
original concentration in the culture supernatant ([1]; Exo-FBS): 9.3259e+09 mL⁻¹ | amount of the extracellular vesicles in the fraction (0.7 mL) ([1]; Fraction #7 of the MEM): 1.114×10^10 | amount of the extracellular vesicles in the fraction (0.7 mL) ([1]; Fraction #8 of the Exo-FBS): 0.8283×10^10 | amount of the extracellular vesicles in the fraction (0.7 mL) ([1]; Fraction #8 of the MEM): 0.5245×10^10 | amount of the extracellular vesicles in the fraction (0.7 mL) ([1]; Fraction #9 of the Exo-FBS): 1.969×10^10 | original concentration in the culture supernatant ([1]; MEM): 5.4612e+09 mL⁻¹ | Expected value λ [1, 3]: 0.9029 | Number of positives [1, 3]: 16,696 | Positive ratio [1, 3]: 0.5946 | Expected value λ [1, 4]: 0.9382 | Number of positives [1, 4]: 17,091 | Positive ratio [1, 4]: 0.6087 | Expected value λ [1, 5]: 0.7605 | Number of positives [1, 5]: 14,954 | Positive ratio [1, 5]: 0.5325 | Expected value λ [1, 6]: 0.7723 and 0.7722 | Number of positives [1, 6]: 15,051 | Positive ratio [1, 6]: 0.538 | Expected value λ [1, 7]: 0.6588 | Number of positives [1, 7]: 13,549 | Positive ratio [1, 7]: 0.4825 | Expected value λ [1, 8]: 0.686 | Number of positives [1, 8]: 13,900 | Positive ratio [1, 8]: 0.4964 | Expected value λ [1, 9]: 0.5033 | Number of positives [1, 9]: 11,105 | Positive ratio [1, 9]: 0.3955 | Expected value λ [1, 10]: 0.4954 | Number of positives [1, 10]: 10,939 | Positive ratio [1, 10]: 0.3906 | Expected value λ [1, 11]: 0.00011 | Number of positives [1, 11]: 3 | Positive ratio [1, 11]: 0.00011 | Expected value λ [1, 12]: 0.00014 | Number of positives [1, 12]: 4 | Positive ratio [1, 12]: 0.00014 | Expected value λ [1, 13]: 0.5687 | Number of positives [1, 13]: 12,180 | Positive ratio [1, 13]: 0.4338 | Expected value λ [1, 14]: 0.5771 | Number of positives [1, 14]: 12,313 | Positive ratio [1, 14]: 0.4385 | Expected value λ [1, 15]: 0.6217 | Number of positives [1, 15]: 12,998 | Positive ratio [1, 15]: 0.4629 | Expected value λ [1, 16]: 0.6019 | Number of positives [1, 16]: 12,698 | Positive ratio [1, 16]: 0.4522 | Expected value λ [1, 17]: 0.00335 | Number of positives [1, 17]: 94 | Positive ratio [1, 17]: 0.00335 | Expected value λ [1, 18]: 0.01005 | Number of positives [1, 18]: 280 | Positive ratio [1, 18]: 0.01005 | Expected value λ [1, 19]: 0.00514 | Number of positives [1, 19]: 144 | Positive ratio [1, 19]: 0.00513 | Expected value λ [1, 20]: 0.01107 | Number of positives [1, 20]: 309 | Positive ratio [1, 20]: 0.01107 | Expected value λ [1, 21]: 0.3476 | Number of positives [1, 21]: 8,245 | Positive ratio [1, 21]: 0.2936 | Expected value λ [1, 22]: 0.5132 | Number of positives [1, 22]: 11,272 | Positive ratio [1, 22]: 0.4014 | Expected value λ [1, 23]: 0.00471 | Number of positives [1, 23]: 132 | Positive ratio [1, 23]: 0.0047 | Expected value λ [1, 24]: 0.01107 | Number of positives [1, 24]: 308 | Positive ratio [1, 24]: 0.01101 | Expected value λ [1, 25]: 0.2958 | Number of positives [1, 25]: 7,164 | Positive ratio [1, 25]: 0.2561 | Expected value λ [1, 26]: 0.7034 | Number of positives [1, 26]: 14,130 | Positive ratio [1, 26]: 0.5051 | Expected value λ [1, 27]: 1.421 | Number of positives [1, 27]: 21,264 | Positive ratio [1, 27]: 0.7586 | Expected value λ [1, 28]: 1.453 | Number of positives [1, 28]: 21,512 | Positive ratio [1, 28]: 0.7661 | Expected value λ [1, 29]: 1.465 | Number of positives [1, 29]: 21,591 | Positive ratio [1, 29]: 0.7689 | Expected value λ [1, 30]: 1.3102 | Number of positives [1, 30]: 20,505 | Positive ratio [1, 30]: 0.7302 | Expected value λ [1, 31]: 1.962 | Number of positives [1, 31]: 24,077 | Positive ratio [1, 31]: 0.8594 | Expected value λ [1, 32]: 3.133 | Number of positives [1, 32]: 26,856 | Positive ratio [1, 32]: 0.9564 | Expected value λ [1, 33]: 0.3978 | Number of positives [1, 33]: 9,216 | Positive ratio [1, 33]: 0.3282 | Expected value λ [1, 34]: 0.1873 | Number of positives [1, 34]: 4,791 | Positive ratio [1, 34]: 0.1708 | Expected value λ [1, 35]: 0.1593 | Number of positives [1, 35]: 4,129 | Positive ratio [1, 35]: 0.1472 | Expected value λ [1, 36]: 0.0176 | Number of positives [1, 36]: 490 | Positive ratio [1, 36]: 0.01745 | Expected value λ [1, 37]: 0.01104 | Number of positives [1, 37]: 308 | Positive ratio [1, 37]: 0.01098 | Expected value λ [1, 38]: 0.01161 | Number of positives [1, 38]: 324 | Positive ratio [1, 38]: 0.01154 | Expected value λ [1, 39]: 0.02444 | Number of positives [1, 39]: 678 | Positive ratio [1, 39]: 0.02415 | Expected value λ [1, 40]: 0.00075 | Number of positives [1, 40]: 21 | Positive ratio [1, 40]: 0.00075 | MMP14 active component concentration ([2]; Experiment condition (I): FBS, only centrifugation, Reaction 4 hr): 3.611e+11 mL⁻¹ | MMP14 active component concentration ([2]; Experiment condition (I): FBS, only centrifugation, Reaction 24 hr): 3.753e+11 mL⁻¹ | MMP14 active component concentration ([2]; Experiment condition (II): FBS, centrifugation + filtration, Reaction 4 hr): 3.042e+11 mL⁻¹ | MMP14 active component concentration ([2]; Experiment condition (II): FBS, centrifugation + filtration, Reaction 24 hr): 3.0889e+11 mL⁻¹ | MMP14 active component concentration ([2]; Experiment condition (IV): Exo-FBS, only centrifugation, Reaction 4 hr): 2.013e+11 mL⁻¹ | MMP14 active component concentration ([2]; Experiment condition (IV): Exo-FBS, only centrifugation, Reaction 24 hr): 1.981e+11 mL⁻¹ | MMP14 active component concentration ([2]; Experiment condition (V): Exo-FBS, centrifugation + filtration, Reaction 4 hr): 2.275e+11 mL⁻¹ | MMP14 active component concentration ([2]; Experiment condition (V): Exo-FBS, centrifugation + filtration, Reaction 24 hr): 2.309e+11 mL⁻¹ | MMP14 active component concentration ([2]; Experiment condition (VII): MEM, only centrifugation, Reaction 4 hr): 1.341e+09 mL⁻¹ | MMP14 active component concentration ([2]; Experiment condition (VII): MEM, only centrifugation, Reaction 24 hr): 4.02e+09 mL⁻¹ | MMP14 active component concentration ([2]; Experiment condition (VIII): MEM, centrifugation + filtration, Reaction 4 hr): 2.057e+09 mL⁻¹ | MMP14 active component concentration ([2]; Experiment condition (VIII): MEM, centrifugation + filtration, Reaction 24 hr): 4.426e+09 mL⁻¹ | MMP14 extracellular vesicle concentration [2, 21]: 1.39e+11 mL⁻¹ | MMP14 extracellular vesicle concentration [2, 22]: 2.053e+11 mL⁻¹ | MMP14 extracellular vesicle concentration [2, 23]: 1.885e+09 mL⁻¹ | MMP14 extracellular vesicle concentration [2, 24]: 4.428e+09 mL⁻¹ | MMP14 extracellular vesicle concentration [2, 25]: 1.1833e+10 mL⁻¹ | MMP14 extracellular vesicle concentration [2, 26]: 2.8135e+10 mL⁻¹ | MMP14 extracellular vesicle concentration [2, 27]: 5.6859e+10 mL⁻¹ | MMP14 extracellular vesicle concentration [2, 28]: 5.8114e+10 mL⁻¹ | MMP14 extracellular vesicle concentration [2, 29]: 5.8598e+10 mL⁻¹ | MMP14 extracellular vesicle concentration [2, 30]: 5.2408e+10 mL⁻¹ | MMP14 extracellular vesicle concentration [2, 31]: 7.8483e+10 mL⁻¹ | MMP14 extracellular vesicle concentration [2, 32]: 1.2532e+11 mL⁻¹ | MMP14 extracellular vesicle concentration [2, 33]: 1.5912e+10 mL⁻¹ | MMP14 extracellular vesicle concentration [2, 34]: 7.493e+09 mL⁻¹ | MMP14 extracellular vesicle concentration [2, 35]: 6.37e+09 mL⁻¹ | MMP14 extracellular vesicle concentration [2, 36]: 7.04e+08 mL⁻¹ | MMP14 extracellular vesicle concentration [2, 37]: 4.42e+08 mL⁻¹ | MMP14 extracellular vesicle concentration [2, 38]: 4.64e+08 mL⁻¹ | MMP14 extracellular vesicle concentration [2, 39]: 9.78e+08 mL⁻¹ | MMP14 extracellular vesicle concentration [2, 40]: 3e+07 mL⁻¹
